Experimental data as given in publication PMC3115714 (Bioorganic & medicinal chemistry, 2011).

Key:
[1] = target: μ-opioid receptor (CHO hMOR) (Homo sapiens, UniProt P35372); assay type: binding
[2] = target: δ-opioid receptor (CHO hDOR) (Homo sapiens, UniProt P41143); assay: Opioid receptor binding assay, [3H]DADLE displacement in hDOR-CHO cell membranes; conditions: selectivity μ over δ, from Ki
[3] = target: κ-opioid receptor (CHO hKOR) (Homo sapiens, UniProt P41145); assay type: binding
[4] = target: μ-opioid receptor (hMOR-CHO) (Homo sapiens, UniProt P35372); assay: biochemical; assay type: biochemical
[5] = target: κ-opioid receptor (hKOR-CHO) (Homo sapiens, UniProt P41145); assay: biochemical; assay type: biochemical
Sequence of κ-opioid receptor (hKOR-CHO) (P41145 whole entry): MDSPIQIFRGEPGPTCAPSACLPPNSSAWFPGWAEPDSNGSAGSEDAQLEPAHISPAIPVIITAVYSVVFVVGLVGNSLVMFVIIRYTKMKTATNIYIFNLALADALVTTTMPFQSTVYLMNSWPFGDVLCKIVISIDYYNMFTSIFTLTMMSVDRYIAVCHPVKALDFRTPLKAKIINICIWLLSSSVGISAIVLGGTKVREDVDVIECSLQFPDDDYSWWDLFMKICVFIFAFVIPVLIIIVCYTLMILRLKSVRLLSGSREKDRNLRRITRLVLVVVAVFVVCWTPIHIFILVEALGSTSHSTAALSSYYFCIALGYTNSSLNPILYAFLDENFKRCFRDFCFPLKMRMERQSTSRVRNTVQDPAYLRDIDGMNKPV

Sequence of μ-opioid receptor (hMOR-CHO) (P35372 whole entry): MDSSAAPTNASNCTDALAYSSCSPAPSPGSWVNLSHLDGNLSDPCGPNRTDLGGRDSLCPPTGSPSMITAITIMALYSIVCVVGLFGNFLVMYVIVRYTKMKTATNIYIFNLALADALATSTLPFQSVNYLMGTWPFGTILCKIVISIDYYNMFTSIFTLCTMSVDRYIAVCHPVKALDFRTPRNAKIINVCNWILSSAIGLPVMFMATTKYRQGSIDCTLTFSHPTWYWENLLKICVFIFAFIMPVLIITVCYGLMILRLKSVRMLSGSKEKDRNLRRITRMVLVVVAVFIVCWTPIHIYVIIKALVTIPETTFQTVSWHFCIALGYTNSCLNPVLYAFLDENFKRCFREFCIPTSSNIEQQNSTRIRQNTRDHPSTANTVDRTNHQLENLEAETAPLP
Sequence of κ-opioid receptor (CHO hKOR) (P41145 whole entry): as the sequence (P41145 whole entry) above
Sequence of μ-opioid receptor (CHO hMOR) (P35372 whole entry): as the sequence (P35372 whole entry) above
Sequence of δ-opioid receptor (CHO hDOR) (P41143 whole entry): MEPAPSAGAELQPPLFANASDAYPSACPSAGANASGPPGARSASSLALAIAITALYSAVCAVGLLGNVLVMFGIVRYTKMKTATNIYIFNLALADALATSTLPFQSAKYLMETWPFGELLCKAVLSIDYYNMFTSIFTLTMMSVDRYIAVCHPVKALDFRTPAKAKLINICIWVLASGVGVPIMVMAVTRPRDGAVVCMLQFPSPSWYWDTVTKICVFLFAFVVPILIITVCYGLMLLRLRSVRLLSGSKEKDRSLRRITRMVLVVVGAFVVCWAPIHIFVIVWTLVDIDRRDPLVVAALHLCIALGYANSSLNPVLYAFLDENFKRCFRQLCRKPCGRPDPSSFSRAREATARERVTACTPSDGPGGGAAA

Oc1cccc2c1O[C@@H]1CN(CCc3ccccc3)[C@@H]3CCC[C@]21C3 (relative stereo) [Cmpd 12, (3R*,6aS*,11aS*)-2-Phenethyl-2,3,4,5,6,11a-hexahydro-1H -3,6a-methanobenzofuro[2,3-c]azocin-10-ol]
μ affinity relative to morphine [1]: two to three times the affinity of morphine
fold less affinity for δ-receptors than for the μ-receptor [2]: about 1200 fold
fold less affinity for κ-receptors than for the μ-receptor [3]: about 50 fold
Kb [4]: 0.71 ± 0.09 nM
potency as μ-opioid antagonist relative to naloxone [4]: more than three times as potent as naloxone
Kb [5]: 1.79 ± 0.51 nM
κ-opioid antagonist potency relative to norBNI [5]: one tenth the potency of norBNI
